Laboratory results reported in ChEMBL document CHEMBL2413072, “Synthesis and in vitro anticancer studies of novel C-2 arylidene congeners of lantadenes” (2013).

Columns and labels:
Assay type in all cases: functional
HL-60(TB) [1] = assay: Growth inhibition of human HL-60(TB) cells assessed as cell growth at 10^-8 M by sulforhodamine B assay; conditions: read-out: Activity
[2] = Growth inhibition of human Hs 578T cells assessed as cell growth at 10^-4 M by sulforhodamine B assay; conditions: read-out: Activity
SF-295 = assay: Growth inhibition of human SF295 cells assessed as cell growth at 10^-4 M by sulforhodamine B assay; conditions: read-out: Activity
SNB-75 [3] = assay: Growth inhibition of human SNB75 cells assessed as cell growth at 10^-6 M by sulforhodamine B assay; conditions: read-out: Activity
RPMI-8226 = assay: Growth inhibition of human RPMI8226 cells assessed as cell growth at 10^-8 M by sulforhodamine B assay; conditions: read-out: Activity
SK-OV-3 [4] = assay: Growth inhibition of human SKOV3 cells assessed as cell growth at 10^-7 M by sulforhodamine B assay; conditions: read-out: Activity
SK-MEL-28 = assay: Growth inhibition of human SK-MEL-28 cells assessed as cell growth at 10^-4 M by sulforhodamine B assay; conditions: read-out: Activity
DU-145 [5] = assay: Growth inhibition of human DU145 cells by sulforhodamine B assay
OVCAR-4 = assay: Growth inhibition of human OVCAR4 cells assessed as cell growth at 10^-4 M by sulforhodamine B assay; conditions: read-out: Activity
MDA-MB-468 [6] = assay: Growth inhibition of human MDA-MB-468 cells by sulforhodamine B assay
UACC-257 [7] = assay: Growth inhibition of human UACC257 cells assessed as cell growth at 10^-4 M by sulforhodamine B assay; conditions: read-out: Activity
HL-60(TB) [8] = assay: Growth inhibition of human HL-60(TB) cells assessed as cell growth at 10^-4 M by sulforhodamine B assay; conditions: read-out: Activity
MOLT-4 = assay: Growth inhibition of human MOLT4 cells assessed as cell growth at 10^-4 M by sulforhodamine B assay; conditions: read-out: Activity
ACHN = assay: Growth inhibition of human ACHN cells assessed as cell growth at 10^-7 M by sulforhodamine B assay; conditions: read-out: Activity
HOP-62 = assay: Growth inhibition of human HOP62 cells assessed as cell growth at 10^-7 M by sulforhodamine B assay; conditions: read-out: Activity
KM12 = assay: Growth inhibition of human KM12 cells assessed as cell growth at 10^-6 M by sulforhodamine B assay; conditions: read-out: Activity
HCT-15 [9] = assay: Growth inhibition of human HCT15 cells assessed as cell growth at 10^-6 M by sulforhodamine B assay; conditions: read-out: Activity
A498 [10] = assay: Growth inhibition of human A498 cells assessed as cell growth at 10^-6 M by sulforhodamine B assay; conditions: read-out: Activity
IGROV-1 = assay: Growth inhibition of human IGROV1 cells assessed as cell growth at 10^-7 M by sulforhodamine B assay; conditions: read-out: Activity
SF-539 = assay: Growth inhibition of human SF539 cells assessed as cell growth at 10^-4 M by sulforhodamine B assay; conditions: read-out: Activity
COLO 205 = assay: Growth inhibition of human COLO205 cells assessed as cell growth at 10^-7 M by sulforhodamine B assay; conditions: read-out: Activity
DU-145 [11] = assay: Growth inhibition of human DU145 cells assessed as cell growth at 10^-6 M by sulforhodamine B assay; conditions: read-out: Activity
HT-29 [12] = assay: Growth inhibition of human HT-29 cells by sulforhodamine B assay
A549 = assay: Growth inhibition of human A549/ATCC cells assessed as cell growth at 10^-7 M by sulforhodamine B assay; conditions: read-out: Activity
NCI-H226 = assay: Growth inhibition of human NCI-H226 cells by sulforhodamine B assay
NCI-H460 = assay: Growth inhibition of human NCI-H460 cells assessed as cell growth at 10^-4 M by sulforhodamine B assay; conditions: read-out: Activity
SR = assay: Growth inhibition of human SR cells assessed as cell growth at 10^-6 M by sulforhodamine B assay; conditions: read-out: Activity
CAKI-1 = assay: Growth inhibition of human CAKI-1 cells assessed as cell growth at 10^-4 M by sulforhodamine B assay; conditions: read-out: Activity
HCT-15 [13] = assay: Growth inhibition of human HCT15 cells assessed as cell growth at 10^-8 M by sulforhodamine B assay; conditions: read-out: Activity
Malme-3M = assay: Growth inhibition of human MALME-3M cells assessed as cell growth at 10^-8 M by sulforhodamine B assay; conditions: read-out: Activity
[14] = Growth inhibition of human Hs 578T cells assessed as cell growth at 10^-7 M by sulforhodamine B assay; conditions: read-out: Activity
HT-29 [15] = assay: Growth inhibition of human HT-29 cells assessed as cell growth at 10^-7 M by sulforhodamine B assay; conditions: read-out: Activity
SK-OV-3 [16] = assay: Growth inhibition of human SKOV3 cells assessed as cell growth at 10^-6 M by sulforhodamine B assay; conditions: read-out: Activity
HL-60(TB) [17] = assay: Growth inhibition of human HL-60(TB) cells by sulforhodamine B assay
T47D = assay: Growth inhibition of human T47D cells assessed as cell growth at 10^-6 M by sulforhodamine B assay; conditions: read-out: Activity
UACC-257 [18] = assay: Growth inhibition of human UACC257 cells assessed as cell growth at 10^-8 M by sulforhodamine B assay; conditions: read-out: Activity
MDA-MB-468 [19] = assay: Growth inhibition of human MDA-MB-468 cells assessed as cell growth at 10^-4 M by sulforhodamine B assay; conditions: read-out: Activity
SW-620 = assay: Growth inhibition of human SW620 cells assessed as cell growth at 10^-7 M by sulforhodamine B assay; conditions: read-out: Activity
MCF7 = assay: Growth inhibition of human MCF7 cells assessed as cell growth at 10^-7 M by sulforhodamine B assay; conditions: read-out: Activity
SNB-75 [20] = assay: Growth inhibition of human SNB75 cells assessed as cell growth at 10^-8 M by sulforhodamine B assay; conditions: read-out: Activity
OVCAR-8 = assay: Growth inhibition of human OVCAR8 cells assessed as cell growth at 10^-8 M by sulforhodamine B assay; conditions: read-out: Activity
PC-3 = assay: Growth inhibition of human PC3 cells assessed as cell growth at 10^-6 M by sulforhodamine B assay; conditions: read-out: Activity
A498 [21] = assay: Growth inhibition of human A498 cells assessed as cell growth at 10^-8 M by sulforhodamine B assay; conditions: read-out: Activity
[22] = read-out: LC50 (the source's name)
[23] = read-out: pLC50 (the source's name) (converted)

## C/C=C(/C)C(=O)O[C@@H]1CC(C)(C)C[C@H]2C3=CC[C@@H]4[C@@]5(C)CC[C@H](O)C(C)(C)[C@@H]5CC[C@@]4(C)[C@]3(C)CC[C@@]12C(=O)O [Reduced Lantadene A]
HL-60(TB) [1]
  growth at 0.01 µM: 106%
[2]
  growth at 100 µM: -38%
SF-295
  growth at 100 µM: -57%
SNB-75 [3]
  growth at 1 µM: 76%
RPMI-8226
  growth at 0.01 µM: 96%
SK-OV-3 [4]
  growth at 0.1 µM: 102%
SK-MEL-28
  growth at 100 µM: -41%
DU-145 [5]; read-out: GI50
  GI50: 2.12 µM
DU-145 [5]; read-out: TGI
  TGI: 4.04 µM
DU-145 [5]; read-out: pGI50 (converted)
  GI50: 2.14 µM
DU-145 [5]; read-out: pTGI (converted)
  TGI: 4.07 µM
OVCAR-4
  growth at 100 µM: -21%
MDA-MB-468 [6]; read-out: GI50
  GI50: 1.68 µM
MDA-MB-468 [6]; [22]
  CC50: 7.86 µM
MDA-MB-468 [6]; read-out: TGI
  TGI: 3.64 µM
MDA-MB-468 [6]; read-out: pGI50 (converted)
  GI50: 1.7 µM
MDA-MB-468 [6]; [23]
  CC50: 7.94 µM
MDA-MB-468 [6]; read-out: pTGI (converted)
  TGI: 3.63 µM
UACC-257 [7]
  growth at 100 µM: -69%
HL-60(TB) [8]
  growth at 100 µM: -36%
MOLT-4
  growth at 100 µM: -36%
ACHN
  growth at 0.1 µM: 101%
HOP-62
  growth at 0.1 µM: 95%
KM12
  growth at 1 µM: 69%
HCT-15 [9]
  growth at 1 µM: 82%
A498 [10]
  growth at 1 µM: 78%
IGROV-1
  growth at 0.1 µM: 111%
SF-539
  growth at 100 µM: -68%
COLO 205
  growth at 0.1 µM: 107%
DU-145 [11]
  growth at 1 µM: 109%
HT-29 [12]; read-out: GI50
  GI50: 2.16 µM
HT-29 [12]; read-out: LC50
  LC50 (50% cell kill): 8.77 µM
HT-29 [12]; read-out: TGI
  TGI: 4.35 µM
HT-29 [12]; read-out: pGI50 (converted)
  GI50: 2.14 µM
HT-29 [12]; read-out: pLC50 (converted)
  LC50 (50% cell kill): 8.71 µM
HT-29 [12]; read-out: pTGI (converted)
  TGI: 4.37 µM
A549
  growth at 0.1 µM: 90%
NCI-H226; read-out: GI50
  GI50: 1.71 µM
NCI-H226; read-out: LC50
  LC50: 8.43 µM
NCI-H226; read-out: TGI
  TGI: 3.79 µM
NCI-H226; read-out: pGI50 (converted)
  GI50: 1.7 µM
NCI-H226; read-out: pLC50 (converted)
  LC50: 8.51 µM
NCI-H226; read-out: pTGI (converted)
  TGI: 3.8 µM
NCI-H460
  growth at 100 µM: -37%
SR
  growth at 1 µM: 89%
CAKI-1
  growth at 100 µM: -65%
HCT-15 [13]
  growth at 0.01 µM: 100%
Malme-3M
  growth at 0.01 µM: 94%
[14]
  growth at 0.1 µM: 91%
HT-29 [15]
  growth at 0.1 µM: 108%
SK-OV-3 [16]
  growth at 1 µM: 98%
HL-60(TB) [17]; read-out: GI50
  GI50: 2.19 µM
HL-60(TB) [17]; [22]
  CC50: > 100 µM
HL-60(TB) [17]; read-out: TGI
  TGI: 4.9 µM
HL-60(TB) [17]; read-out: pGI50 (converted)
  GI50: 2.19 µM
HL-60(TB) [17]; [23]
  CC50: > 100 µM
HL-60(TB) [17]; read-out: pTGI (converted)
  TGI: 4.9 µM
T47D
  growth at 1 µM: 96%
UACC-257 [18]
  growth at 0.01 µM: 93%
MDA-MB-468 [19]
  growth at 100 µM: -86%
SW-620
  growth at 0.1 µM: 95%
MCF7
  growth at 0.1 µM: 96%
SNB-75 [20]
  growth at 0.01 µM: 78%
OVCAR-8
  growth at 0.01 µM: 98%
PC-3
  growth at 1 µM: 70%
A498 [21]
  growth at 0.01 µM: 79%
